From publication PMC5590070, “Anti-Inflammatory, Antioxidant, Antibiotic, and Cytotoxic Activities of Tanacetum vulgare L. Essential Oil and Its Constituents” (Medicines, 2017)
Converted amounts (≈) assume the structure as drawn. Where two headings read alike, the source gives them in different places.

Tests used:
[1] = system: NO production in murine macrophage RAW 264.7 cells; assay: Inhibition of NO production in LPS-stimulated RAW 264.7 macrophages (Griess reaction); assay type: cell-based; details: for IC50 / Anti-Inflammation IC50: inhibition of NO production, RAW 264.7, 100 ng·mL^−1 LPS, 24 h; for IC50: read-out: Anti-Inflammation IC50
Description: We evaluated the inhibition NO production by T. vulgare essential oil and compounds as described by Legault et al.. Control L-NAME was used as positive control. Murine macrophage RAW 264.7 cells were incubated with essential oil or dissolved compounds in DMSO and then stimulated with 100 ng·mL^−1 LPS and incubated at 37 °C. After 24 h, we collected the cell-free supernatants and immediately determined the NO concentration using the Griess reaction. We read the absorbance at 540 nm using an automated Varioskan Ascent plate reader (Labsystems, Milford, MA, USA), and quantified the presence of nitrite by comparing with a NaNO2 standard curve.

[2] = system: human skin fibroblasts WS1; assay: Cell-based antioxidant DCFH-DA assay (tert-butylhydroperoxide-induced DCFH oxidation); details: inhibition of DCFH oxidation induced by tert-butylhydroperoxide, WS1 cells; for IC50: Homo sapiens
Description: Antioxidant activity was evaluated using the DCFH-DA assay as described by Girard-Lalancette et al.. To assess antioxidant activity, we incubated the human skin fibroblasts WS1 for 1 h with a growing concentration of essential oil or dissolved compounds in DMSO. We then added 100 µL of 200 µM tert-butylhydroperoxide and immediately measured fluorescence as well as again after 90 min later. Measurements were performed on an automated plate reader (Fluoroskan Ascent FL, Labsystems, Milford, MA, USA) using an excitation wavelength of 485 nm and an emission wavelength of 530 nm.

[3] = system: Escherichia coli (ATCC 25922); assay: Antibacterial hydrophobic assay (resazurin); assay type: cell-based
Description: (§1) We tested the antibacterial activities of T. vulgare essential oil and compounds against gram-negative Escherichia coli (ATCC bacteria 25922) and gram-positive Staphylococcus aureus (ATCC bacteria 25923) using the antibacterial hydrophobic assay as described by Côté et al.. This new method was developed and used in this work as classical methods including disc diffusion and microdilution assays are sometimes inefficient for testing a matrix or compounds of a hydrophobic nature. Briefly, after microorganisms passed 16–18 h at 37 °C in a nutrient broth base (Difco), we transferred 20 µL methanol containing growing concentrations of essential oil and compounds (3.1 to 200 µg·mL^−1) onto nutrient agar of 96-well plates. We then added bacterial strains having a concentration of 5 × 10^3 colony forming units (CFU) per mL of nutrient broth. […] The blank consisted of culture medium only and was subtracted from all subsequent measurements of every other well. The 96-well plates were then incubated at 37 °C for 5 h to foster bacterial growth. We then added 100 µL of resazurin sodium salt solution having a concentration of 50 µg·mL^−1 (Sigma R-2127, St-Louis, MO, USA) to each well.

[4] = system: Staphylococcus aureus (ATCC 25923); assay: Antibacterial hydrophobic assay (resazurin); assay type: cell-based
Description: as §1

[5] = Cytotoxic assay, resazurin reduction test, 48 h; assay type: cell-based, human; details: human
Description: (§2) We plated in 96-well microplates—each containing a 100 µL culture medium—exponentially growing cells of human skin fibroblasts WS1, human HaCaT keratinocytes, human lung carcinoma A-549, and human colon adenocarcinoma DLD-1 at a density of 5 × 10^3 cells per well (Costar, Corning Inc., Lowell, MA, USA). The cells were allowed to adhere for 16 h before treatment. We then treated cells with T. vulgare essential oil or dissolved compounds in DMSO. The final concentration of DMSO in the culture medium was 0.5% (v/v) to avoid solvent toxicity. After 48 h, we assessed the cytotoxicity using the resazurin reduction test. Fluorescence was measured on an automated Fluoroskan Ascent FL^TM plate reader (Labsystems, Milford, MA, USA) using an excitation wavelength of 530 nm and an emission wavelength of 590 nm.

in vitro = details: human
Description: as §2
We assessed the cytotoxic activity of T. vulgare essential oil and its main compounds against human lung carcinoma A-549, colon adenocarcinoma DLD-1, human keratinocytes HaCaT, and healthy WS1 cell lines.

[6] = system: human colon adenocarcinoma DLD-1; assay: Cytotoxic assay, resazurin reduction test, 48 h; assay type: cell-based; details: DLD-1, 48 h
Description: as §2

[7] = system: human lung carcinoma A-549; assay: Cytotoxic assay, resazurin reduction test, 48 h; assay type: cell-based; details: A-549, 48 h
Description: as §2

[8] = system: human skin fibroblasts WS1; assay: Cytotoxic assay, resazurin reduction test, 48 h; assay type: cell-based; details: WS1, 48 h
Description: as §2

[9] = Escherichia coli, ATCC25922, E. coli, 50% inhibition of bacterial growth
[10] = Staphylococcus aureus, ATCC25923, S. aureus, 50% inhibition of bacterial growth
[11] = A-549 lung carcinoma cells, A-549, 48 h, read-out: Cytotoxicity IC50 A549
[12] = DLD-1 colon adenocarcinoma cells, DLD-1, 48 h, read-out: Cytotoxicity IC50 DLD1
[13] = WS1 skin fibroblasts, WS1, 48 h, read-out: Cytotoxicity IC50 WS1
[14] = E. coli, 50% inhibition of bacterial growth
[15] = S. aureus, 50% inhibition of bacterial growth
[16] = Escherichia coli, ATCC25922, read-out: Antibacterial IC50 E. coli
[17] = Staphylococcus aureus, ATCC25923, read-out: Antibacterial IC50 S. aureus
[18] = A-549, 48 h, read-out: Cytotoxicity IC50 A549
[19] = DLD-1, 48 h, read-out: Cytotoxicity IC50 DLD1
[20] = WS1, 48 h, read-out: Cytotoxicity IC50 WS1

| Compound | IC50 ([1]; Mus musculus, RAW264.7) [µg/mL] | IC50 [2] [µg/mL] | IC50 [3, 9] [µg/mL] | IC50 [4, 10] [µg/mL] | IC50 at 48 h [5, 11] [µg/mL] | IC50 at 48 h [5, 12] [µg/mL] | IC50 at 48 h [5, 13] [µg/mL] | IC50 at 48 h (in vitro) [µg/mL] | further results |
| --- | --- | --- | --- | --- | --- | --- | --- | --- | --- |
| CC12CCC(CC1)C(C)(C)O2 [1,8-Cineole] | > 200 | > 200 | > 200 | > 200 | > 200 | > 200 | > 200 | > 200 | – |
| CC1(C)C2CCC1(C)C(O)C2 (stereo not shown) [Borneol] | > 200 | > 200 | > 200 | > 200 | > 200 | > 200 | > 200 | > 200 | – |
| CC(=O)OC1CC2CCC1(C)C2(C)C (stereo not shown) [Bornyl acetate] | > 200 | > 200 | > 200 | > 200 | > 200 | > 200 | > 200 | – | – |
| C=C1C2CCC(C2)C1(C)C (stereo not shown) [Camphene] | > 200 | > 200 | > 200 | > 200 | 72 ± 2 | 75 ± 5 | 49 ± 1 | 28 to 112 (≈ 206 to 822 µM) | – |
| CC12CCC(CC1=O)C2(C)C (stereo not shown) [Camphor] | > 200 | > 200 | 22 to 26 (≈ 145 to 171 µM) | 22 to 26 (≈ 145 to 171 µM) | > 200 | > 200 | > 200 | > 200 | Antibacterial IC50 E. coli [3, 14]: 22 ± 1 µg/mL; Antibacterial IC50 S. aureus [4, 15]: 26 ± 3 µg/mL |
| C=C1CC[C@H]2O[C@]2(C)CC[C@@H]2[C@@H]1CC2(C)C [Caryophyllene oxide] | – | – | – | – | – | – | – | – | Anti-Inflammation IC50 [1]: 183 ± 15 µg/mL; Antioxidant IC50 [2]: 6.2 ± 0.5 µg/mL; Antibacterial IC50 E. coli [3, 14]: 97 ± 2 µg/mL; Antibacterial IC50 S. aureus [4, 15]: 10.4 ± 0.9 µg/mL; Cytotoxicity IC50 DLD1 [6]: 43 ± 3 µg/mL; Cytotoxicity IC50 A549 [7]: 36 ± 2 µg/mL; Cytotoxicity IC50 WS1 [8]: 50 ± 4 µg/mL |
| O=C(N[C@H](CO)[C@H](O)c1ccc([N+](=O)[O-])cc1)C(Cl)Cl [Chloramphenicol, reference compound] | – | – | – | – | – | – | – | – | MIC90 ([3]; Escherichia coli, ATCC25922, E. coli, antibiotic positive control): 0.9 µg/mL (≈ 2.79 µM); MIC90 ([4]; Staphylococcus aureus, ATCC25923, S. aureus, antibiotic positive control): 0.73 µg/mL (≈ 2.26 µM) |
| COc1cc([C@@H]2c3cc4c(cc3[C@@H](O[C@@H]3O[C@@H]5CO[C@@H](C)O[C@H]5[C@H](O)[C@H]3O)[C@H]3COC(=O)[C@H]23)OCO4)cc(OC)c1O [Etoposide, reference compound] | – | – | – | – | – | – | – | – | IC50 at 48 h ([5]; A-549 lung carcinoma cells, A-549, cytotoxic positive control, read-out: Cytotoxicity IC50 A-549): 2300 nM; IC50 at 48 h ([5]; DLD-1 colon adenocarcinoma cells, DLD-1, cytotoxic positive control, read-out: Cytotoxicity IC50 DLD-1): 2800 nM; IC50 at 48 h ([5]; WS1 skin fibroblasts, WS1, cytotoxic positive control, read-out: Cytotoxicity IC50 WS1): 19000 nM |
| COC(=O)[C@@H](N)CCCNC(N)=N[N+](=O)[O-] [L-NAME, reference compound] | – | – | – | – | – | – | – | – | inhibition at 1000 µM ([1]; Mus musculus, RAW264.7, 1 mM, positive control): 64.1% |
| C=C(C)[C@H]1CC=C(C)CC1 [Limonene] | – | – | – | – | – | – | – | – | Anti-Inflammation IC50 [1]: >200 µg/mL; Antibacterial IC50 E. coli [3, 14]: >200 µg/mL; Antibacterial IC50 S. aureus [4, 15]: >200 µg/mL; Cytotoxicity IC50 DLD1 [6]: 31 ± 3 µg/mL; Cytotoxicity IC50 A549 [7]: 71 ± 6 µg/mL |
| O=c1c(O)c(-c2ccc(O)c(O)c2)oc2cc(O)cc(O)c12 [Quercetin, reference compound] | – | 0.043 (≈ 0.142 µM) | – | – | – | – | – | – | – |
| CC1=CCC(O)(C(C)C)CC1 (stereo not shown) [Terpinen-4-ol] | > 200 | > 200 | > 200 | > 200 | > 200 | > 200 | > 200 | – | – |
| CC1=CCC(=C(C)C)CC1 [Terpinolene] | > 200 | – | – | – | – | – | – | – | IC50 [3, 16]: > 200 µg/mL; IC50 [4, 17]: > 200 µg/mL; IC50 at 48 h [5, 18]: > 200 µg/mL; IC50 at 48 h [5, 19]: > 200 µg/mL; IC50 at 48 h [5, 20]: > 200 µg/mL |
| Cc1ccc(C(C)C)cc1 [p-Cymene] | > 200 | > 200 | > 200 | > 200 | > 200 | > 200 | > 200 | – | – |
| C/C1=C\CC/C(C)=C/CC(C)(C)/C=C/C1 [α-Humulene] | – | – | – | – | – | – | – | – | Anti-Inflammation IC50 [1]: 15 ± 2 µg/mL; Antioxidant IC50 [2]: >200 µg/mL; Antibacterial IC50 E. coli [3, 14]: >200 µg/mL; Antibacterial IC50 S. aureus [4, 15]: >200 µg/mL; Cytotoxicity IC50 DLD1 [6]: 43 ± 3 µg/mL; Cytotoxicity IC50 A549 [7]: 28 ± 1 µg/mL; Cytotoxicity IC50 WS1 [8]: 24 ± 3 µg/mL |
| CC1=CCC2CC1C2(C)C (stereo not drawn) [α-Pinene] | 30 ± 4 (≈ 220 µM) | 3.4 ± 0.2 (≈ 25 µM) | – | – | 35 ± 6 | 58 ± 18 | 57 ± 4 | 28 to 112 (≈ 206 to 822 µM) | – |
| CC1=CC=C(C(C)C)CC1 [α-Terpinene] | 46 ± 4 (≈ 338 µM) | > 200 | – | – | – | – | – | 28 to 112 (≈ 206 to 822 µM) | IC50 [3, 16]: > 200 µg/mL; IC50 [4, 17]: > 200 µg/mL; IC50 at 48 h [5, 18]: 63 ± 10 µg/mL; IC50 at 48 h [5, 19]: 73 ± 7 µg/mL; IC50 at 48 h [5, 20]: 53 ± 12 µg/mL |
| C=C1CC/C=C(\C)CC[C@@H]2[C@@H]1CC2(C)C [β-Caryophyllene] | > 200 | > 200 | > 200 | > 200 | 55 ± 5 | 97 ± 6 | 59 ± 7 | 28 to 112 (≈ 137 to 548 µM) | – |
| C=C1CCC2CC1C2(C)C (stereo not drawn) [β-Pinene] | 46 ± 9 (≈ 338 µM) | > 200 | > 200 | > 200 | – | – | – | 28 to 112 (≈ 206 to 822 µM) | IC50 at 48 h [5, 18]: 43 ± 4 µg/mL; IC50 at 48 h [5, 19]: 49.4 ± 0.3 µg/mL; IC50 at 48 h [5, 20]: 29 ± 14 µg/mL |
| CC1=CCC(C(C)C)=CC1 [γ-Terpinene] | > 200 | – | – | – | – | – | – | 28 to 112 (≈ 206 to 822 µM) | IC50 [3, 16]: > 200 µg/mL; IC50 [4, 17]: 50 ± 9 µg/mL (≈ 367 µM); IC50 at 48 h [5, 18]: 112 ± 15 µg/mL; IC50 at 48 h [5, 19]: > 200 µg/mL; IC50 at 48 h [5, 20]: 82 ± 15 µg/mL |
